Assays:
[1] = molecular target: T1, DNAJA1 (Homo sapiens, UniProt P31689); assay: ITC; STD NMR and 2D 1H-15N HSQC chemical shift perturbation; format: binding
T1 construct: DNAJA1-107 (residues 1 to 107, J-domain and linker, N-terminal 6x-His tag)

[2] = molecular target: T1, DNAJA1; assay: 1D […] NMR line broadening and 2D 1H-15N HSQC chemical shift perturbation; format: binding
[3] = molecular target: T2, DNAJA1-107 (residues 1 to 107 of human DnaJ homolog subfamily A member 1) (human, UniProt P31689 1-107); assay: NMR titration; 15N-DNAJA1-107 mixed with ANT3 (232-272) at DNAJA1-107:ANT3 molar ratios 10:1, 5:1 and 1:1 (50 uM each at equal molarity); 10 mM Tris-HCl, 1 mM EDTA, 6% trehalose, pH 8.0; 2D 1H-15N HSQC; immediate, concentration-dependent precipitation on mixing taken as the sign of interaction; details: both partners purified
T2 construct: The methods name an N-terminal 6x-histidine tag; 15N-labelled for the NMR experiment with ANT3; source: for the pull-down immobilised on cobalt resin; not shown: His6, N-terminal, kept

| Molecule | Kd [1] [µM] | further results |
| --- | --- | --- |
| CCOc1ccc(-c2cc(OC(=O)c3cccs3)c3c(C)oc(C)c3c(=O)c2)cc1 [compound 7727968, 6-(4-ethoxyphenyl)-1,3-dimethyl-4-oxo-4H-cyclohepta[c]furan-8-yl 2-thiophenecarboxylate] | 10 | – |
| O=C(c1ccc(Br)s1)N1CCN(c2ccc(F)cc2)CC1 [compound 9101204, 1-[(5-bromo-2-thienyl)carbonyl]-4-(4-fluorophenyl)piperazine] | 0.1 ± 0.3 | – |
| Nc1ncnc2c1ncn2[C@@H]1O[C@H](COP(=O)(O)OP(=O)(O)O)[C@@H](O)[C@H]1O [ADP] | – | 1D 31P NMR line broadening and 2D 1H-15N HSQC chemical shift perturbation [2]: ADP, O-phospho-L-serine, O-phospho-L-tyrosine, and dihydroxyacetone phosphate exhibited specific binding to DNAJA1-107 |
| DTVRRRMMMQSGRKGADIMYTGTVDCWRKIFRDEGGKAFFK (domain or fragment, UniProt P12236 232-272, looked up, ADP/ATP translocase 3 (ANT3), human, amino acids 232-272; The construct included an N-terminal 6xHis-KSI tag to aid purification and solubility; also called ANT3 construct; source: bought: CUSABIO, catalog number CSB-EP021520HU1) [Recombinant Human ADP/ATP translocase 3 (ANT3), amino acids 232-272] | – | binding result [3]: binds |

Reference: article PMC9599757, “Leveraging the Structure of DNAJA1 to Discover Novel Potential Pancreatic Cancer Therapies” (Biomolecules, 2022)
